Results: patent publication US10941180B2, “Peptoid compound, and derivative, salt, preparation method and use thereof” (BOE Technology Group Co., Ltd., priority 2018, dated 2021)
Like-named read-outs stand apart in the source and are kept apart here. Starred links: 1 amine or outer side, 2 acyl side, 3 side chain; linkers in the order of their positions; H or OH if unused. Non-standard residues stand in square brackets, D forms with d. Residues, ends and D or L forms follow the SMILES beside them. X2 = O=C(CN(CCc1ccc(-c2ccccc2)cc1)[*:1])[*:2]; Gly(N-piperonyl) = O=C(O)CNCc1ccc2c(c1)OCO2; X1 = CC(c1ccccc1)N(CC(=O)[*:2])[*:1]; Gly(N-2-aminoethyl) = NCCNCC(=O)O; Nleu = CC(C)CNCC(=O)O; Nlys = NCCCCNCC(=O)O

How the values were obtained:
Her2 protein = target: T1, Her2 protein (Homo sapiens, UniProt P04626); test: Binding ability to Her2 protein by surface plasmon resonance imaging (SPRi)
T1 construct: purchased Sigma (USA)
T1 sequence (P04626 23-1255): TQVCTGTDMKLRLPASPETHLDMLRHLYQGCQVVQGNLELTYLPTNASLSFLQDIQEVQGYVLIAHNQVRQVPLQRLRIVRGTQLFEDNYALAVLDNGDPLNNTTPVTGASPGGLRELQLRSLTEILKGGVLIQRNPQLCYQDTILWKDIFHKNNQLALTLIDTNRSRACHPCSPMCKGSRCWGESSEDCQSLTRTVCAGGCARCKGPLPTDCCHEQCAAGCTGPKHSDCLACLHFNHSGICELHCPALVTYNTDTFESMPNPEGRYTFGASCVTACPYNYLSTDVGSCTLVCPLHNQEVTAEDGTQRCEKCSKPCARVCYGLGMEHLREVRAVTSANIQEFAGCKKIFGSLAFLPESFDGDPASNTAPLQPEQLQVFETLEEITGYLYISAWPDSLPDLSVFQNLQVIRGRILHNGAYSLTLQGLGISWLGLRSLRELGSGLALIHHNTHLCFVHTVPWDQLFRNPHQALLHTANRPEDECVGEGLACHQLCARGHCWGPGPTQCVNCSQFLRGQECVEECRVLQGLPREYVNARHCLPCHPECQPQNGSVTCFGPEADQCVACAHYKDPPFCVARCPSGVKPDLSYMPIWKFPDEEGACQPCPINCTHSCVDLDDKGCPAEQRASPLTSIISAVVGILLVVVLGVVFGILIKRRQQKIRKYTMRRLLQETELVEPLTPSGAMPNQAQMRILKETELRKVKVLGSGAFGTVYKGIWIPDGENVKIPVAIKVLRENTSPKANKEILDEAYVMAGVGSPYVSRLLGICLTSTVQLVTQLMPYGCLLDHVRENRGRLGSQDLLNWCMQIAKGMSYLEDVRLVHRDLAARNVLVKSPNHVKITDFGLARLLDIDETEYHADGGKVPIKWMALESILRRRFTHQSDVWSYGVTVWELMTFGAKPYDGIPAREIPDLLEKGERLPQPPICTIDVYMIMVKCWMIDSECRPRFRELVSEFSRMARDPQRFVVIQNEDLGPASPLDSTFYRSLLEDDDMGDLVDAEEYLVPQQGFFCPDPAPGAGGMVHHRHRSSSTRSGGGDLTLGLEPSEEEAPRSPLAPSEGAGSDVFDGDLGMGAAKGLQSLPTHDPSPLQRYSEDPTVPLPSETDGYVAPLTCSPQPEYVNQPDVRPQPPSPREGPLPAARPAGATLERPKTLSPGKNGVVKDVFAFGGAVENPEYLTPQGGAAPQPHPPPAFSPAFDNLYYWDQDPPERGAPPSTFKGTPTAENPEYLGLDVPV
Protocol: (§1) The SPRi apparatus described in the following examples was Plexera Kx5V2, Plexera Bioscience LLC, USA; and phosphate buffer saline (PBS), phosphoric acid, and proteinase K were prepared according to the product instruction manual.
Unless otherwise indicated, “Her2 protein” herein refers to the full-length Her2 protein.
The specific steps for testing the binding ability of the peptoid compound of Preparation Example 1 or the peptoid Derivative of Preparation Example 2 to the Her2 protein by surface plasmon resonance imaging techniques are shown as follows:
(1) dissolving the peptoid compound of Preparation Example 1 or the peptoid derivative of Preparation Example 2 into ddH2O at a concentration of 1 to 1000 μM to prepare a peptoid compound molecular probe sample to be spotted at a gradient concentration of 1-1000 μM;
(2) spotting the above peptoid compound molecular probe sample on a surface of a 3D chip (PlexArray HT, Plexera Bioscience, USA), in which each sample is repeated for 3 points, incubated at 4° C. for 12 hours, and washed by 10×PBS, 1×PBS and ultrapure water in sequence. The chip was then blocked with 1 M of aminoethanol hydrochloride for 30 minutes, then washed 5 times with ultrapure water, and finally dried with clean nitrogen; […]

[1] = target: T2, Her2 protein in the serum (Homo sapiens, UniProt P04626); test: Detection of serum signals of breast cancer patients and normal persons by SPRi with the peptoid probe chip; type: binding; details: serum diluted 1:5000; probe concentrations 80 μM, 400 μM, 2 mM, 10 mM, 50 mM; FIG. 3
T2 construct: introducing the serum of the patient with breast cancer and the normal person (diluted 1:5000 in volume); from tissue; host or cells: human serum (breast cancer patients with high Her2 expression, and normal persons)
T2 sequence (P04626 23-647 limits assumed): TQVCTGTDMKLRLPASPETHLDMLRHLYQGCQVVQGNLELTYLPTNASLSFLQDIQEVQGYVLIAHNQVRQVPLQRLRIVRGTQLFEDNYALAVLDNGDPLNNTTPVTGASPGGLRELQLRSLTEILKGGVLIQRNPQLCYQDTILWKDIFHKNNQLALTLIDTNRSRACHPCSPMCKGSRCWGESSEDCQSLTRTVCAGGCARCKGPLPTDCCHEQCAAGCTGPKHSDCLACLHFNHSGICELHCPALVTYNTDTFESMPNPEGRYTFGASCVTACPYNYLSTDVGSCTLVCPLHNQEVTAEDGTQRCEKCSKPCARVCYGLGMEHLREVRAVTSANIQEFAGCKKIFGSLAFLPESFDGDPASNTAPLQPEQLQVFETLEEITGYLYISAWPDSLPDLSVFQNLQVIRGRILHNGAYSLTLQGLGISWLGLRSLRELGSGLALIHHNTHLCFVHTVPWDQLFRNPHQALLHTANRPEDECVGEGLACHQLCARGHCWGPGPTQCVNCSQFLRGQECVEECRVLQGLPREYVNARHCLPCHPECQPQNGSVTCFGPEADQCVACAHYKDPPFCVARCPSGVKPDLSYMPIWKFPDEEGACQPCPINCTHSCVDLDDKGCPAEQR
Protocol: as §1
Unless otherwise indicated, “patients with breast cancer” herein refers to patients with breast cancer having a high Her2 expression.
The specific steps for testing the detection of the peptoid compound of Preparation Example 1 or the peptoid Derivative of Preparation Example 2 for the blood of the patients with breast cancer by surface plasmon resonance imaging techniques are shown as follows:
(1) in the same manner as in Experimental Example 1, preparing the same 3D chip as in Experimental Example 1, mounting the chip on the SPRi instrument, measuring SPRi angle and adjusting it to the optimal optical position, in which relevant detection points including sample points and blank points are selected in the detection area, and the experimental flow rate is set to 2 μL/s; […]

CC(C)CN(CC(=O)N(CCCCN)CC(=O)N(CC(=O)N(CCCCN)CC(=O)N(CCCCN)CC(=O)N(CCN)CC(=O)N(CCc1ccc(-c2ccccc2)cc1)CC(N)=O)Cc1ccc2c(c1)OCO2)C(=O)CN(C(=O)CNCCCCN)C(C)c1ccccc1 (stereo not drawn) [Preparation Example 1] (H-[Nlys][X1][Nleu][Nlys][Gly(N-piperonyl)][Nlys][Nlys][Gly(N-2-aminoethyl)][X2]-NH2)
Kd (Her2 protein; probe spotted on 3D chip, Her2 at 2.632, 1.316, 0.658, 0.329 μM, fitted with BIAevalution 4.1, read-out: equilibrium dissociation constant KD): 61.8 nM | Kd (Her2 protein; read-out: equilibrium dissociation constant KD in the binding kinetic constant with Her2 (order of magnitude)): ~10 nM | distinction of serum samples of breast cancer patients from normal persons (ΔAU signal) [1]: clearly distinguish the serum samples of the patients with breast cancer
